From paper PMC11785791, “Cryo-EM structure of the calcium-sensing receptor complexed with the kokumi substance γ-glutamyl-valyl-glycine” (Scientific Reports, 2025)
Residue numbers refer to the chain shown, from its start. *1 amine or outer side, *2 acyl side, *3 side chain or, on linkers, in order; H or OH if unused. Where a SMILES comes first, the peptide text is derived from it. γGlu = O=C(O)[CH](CCC(=O)[*:2])N[*:1]

How the values were obtained:
[1] = target: T1, human CaSR E297A mutant (Homo sapiens, UniProt P41180, E297A); assay: Calcium mobilization assay, CaSR E297A mutant; type: cell-based; settings: for Response in calcium mobilization assay: in words
T1 construct: (N); expressed in transfected cells; host or cells: PEAKrapid cells (ATCC), pcDNA 3.1, transient transfection
T1 sequence (P41180 20-1078 E297A): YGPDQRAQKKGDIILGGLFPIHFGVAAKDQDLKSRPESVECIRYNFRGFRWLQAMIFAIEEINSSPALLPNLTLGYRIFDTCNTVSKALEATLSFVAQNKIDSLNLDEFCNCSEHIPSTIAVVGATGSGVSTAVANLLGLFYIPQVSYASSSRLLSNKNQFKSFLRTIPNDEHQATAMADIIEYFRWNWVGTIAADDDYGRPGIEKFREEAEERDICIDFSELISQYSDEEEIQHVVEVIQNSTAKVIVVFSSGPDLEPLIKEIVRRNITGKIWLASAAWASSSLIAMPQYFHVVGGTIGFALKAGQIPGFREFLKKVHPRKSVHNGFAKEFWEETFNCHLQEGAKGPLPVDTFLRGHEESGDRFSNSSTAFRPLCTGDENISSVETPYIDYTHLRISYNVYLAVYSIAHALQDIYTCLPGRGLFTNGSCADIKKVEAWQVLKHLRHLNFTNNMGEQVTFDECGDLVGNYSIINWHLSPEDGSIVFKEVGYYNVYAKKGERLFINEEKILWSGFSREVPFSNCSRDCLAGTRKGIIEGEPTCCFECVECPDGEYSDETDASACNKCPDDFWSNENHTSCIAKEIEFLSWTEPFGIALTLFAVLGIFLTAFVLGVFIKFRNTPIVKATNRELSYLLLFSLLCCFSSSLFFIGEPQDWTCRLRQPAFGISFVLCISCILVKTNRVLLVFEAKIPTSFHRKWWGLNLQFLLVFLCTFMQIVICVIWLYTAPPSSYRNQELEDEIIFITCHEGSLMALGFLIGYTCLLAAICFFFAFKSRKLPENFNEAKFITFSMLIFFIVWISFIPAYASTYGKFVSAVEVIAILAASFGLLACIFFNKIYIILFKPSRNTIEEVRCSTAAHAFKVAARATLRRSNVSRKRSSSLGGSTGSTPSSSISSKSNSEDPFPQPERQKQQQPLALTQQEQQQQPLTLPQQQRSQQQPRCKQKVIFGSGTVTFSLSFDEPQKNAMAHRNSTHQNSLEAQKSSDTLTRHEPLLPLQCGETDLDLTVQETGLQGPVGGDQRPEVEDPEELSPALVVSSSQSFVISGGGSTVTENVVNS
Experimental: (§1) The CaSR receptor responsiveness was assessed by using PEAK^rapid cells (ATCC, Manassas, VA, USA) transiently transfected with the receptor DNA by the method reported by Kitajima et al.[6]. Briefly, human CaSR or its mutant cDNA with a signal sequence (MAFYSCCWVLLALTWHTSA) followed by FLAG-tag (DYKDDDDK) were inserted into pcDNA 3.1 expression vectors in Opti-MEM I medium (Thermo Fisher Scientific), mixed with FuGENE 6 (Roche), and poured onto PEAK^rapid cells grown at a submaximal concentration. After culturing for 24 h in 96-well plates, the cells were incubated with 5 µM Calcium-5 solution (Calcium-5 assay kit, Molecular Devices) for 45–60 min, and measurements were performed using a plate reader (FDSS/µCELL, Hamamatsu Photonics, Shizuoka, Japan) and its associated software. The activation of CaSR expressed in cells increases the intracellular Ca^2+ concentration, which is measured using a Ca^2+-sensitive dye. The binding of Ca^2+ to the Ca^2+-sensitive dye increases dye fluorescence, with excitation at 485 nm and emission at 525 nm. Test compounds were dissolved and administered in the assay buffer (146 mM NaCl, 1 mM MgSO4, 20 mM HEPES, 1 mM CaCl2, 2.5 mM probenecid, and 1.39 mM glucose, pH 7.4). Transiently transfected cells were challenged with compounds and compared with the vehicle alone and/or mock-transfected cells. The concentration dependence of the fluorescence intensity (influx of Ca^2+) was analyzed using the plate reader at 1 s intervals for 180 s. For the dose–response curve calculations, peak fluorescence responses after the addition of compounds were corrected for, normalized to the background fluorescence (ΔF/F = –F − F0)/F0), and baseline noise was subtracted. Dose–response curves were calculated by non-linear regression using GraphPad PRISM 8.0.

[2] = target: T2, human CaSR (wild type) (Homo sapiens, UniProt P41180); assay: Calcium mobilization assay, wild-type CaSR in PEAKrapid cells; type: cell-based; settings: WT CaSR; for EC50: PEAKrapid cells, 1 mM CaCl2 in assay buffer, mean ± s.e.m., n = 3; for Response in calcium mobilization assay: in words
T2 construct: expressed in transfected cells; host or cells: PEAKrapid cells (ATCC), pcDNA 3.1, transient transfection
T2 sequence (P41180 20-1078): T1 sequence (P41180 20-1078 E297A) with A278E
Experimental: as §1

Response in calcium mobilization assay [1]	EC50 [2]	Response in calcium mobilization assay [2]	Emax (% of wild-type values) [1]	EC50 ([1]; mean ± s.e.m., n = 3)	SMILES
no response	3900 ± 1100 µM	weak response	–	–	N[C@@H](Cc1ccc(O)cc1)C(=O)O [L-Tyr, L-tyrosine]
no response	10.71 ± 0.1 µM	weak response	–	–	CC(C)[C@H](NC(=O)CC[C@H](N)C(=O)O)C(=O)O [γ-EV, γ-glutamyl-valine]
–	190 ± 400 µM	–	86.0 % of WT	6580 ± 300 µM	[Ca+2].[Cl-].[Cl-] [CaCl2]

SMILES	Response in calcium mobilization assay [1]	EC50 [2]	Response in calcium mobilization assay [2]	Emax (% of wild-type values) [1]	EC50 ([1]; mean ± s.e.m., n = 3)
CC(C)C(NC(=O)CCC(N)C(=O)O)C(=O)NCC(=O)O (stereo not drawn) [γ-EVG, γ-glutamyl-valyl-glycine] (γGlu-Val-Gly-OH; configuration not given here)	greatly reduced the response	0.18 ± 0.1 µM	–	–	–
